Assay results published in patent publication US4921858A, “7-deazaguanines as immunomodulators” (Warner-Lambert Company, priority 1989, dated 1990).
pIC50: −log10 of the molar value.

Assays:
rejection of skin graft = conditions: dogs; cited from earlier work
B-cell = experiment: HTBA-1 B-cell toxicity in the presence of 2'-deoxyguanosine; format: cell-based; conditions: in the presence of the same amount of 2'-deoxyguanosine
T-cells = experiment: HTBA-1 T-cell cytotoxicity in the presence of 2'-deoxyguanosine; format: cell-based
[1] = target: T1, purine nucleoside phosphorylase (PNP-4) (Homo sapiens, UniProt P00491); experiment: PNP-4 enzyme assay, radiochemical, formation of [14C]hypoxanthine from [14C]inosine; format: biochemical; conditions: human erythrocyte enzyme
T1 construct: using human erythrocyte as the enzyme source; from tissue; host or cells: human erythrocyte
T1 sequence (P00491 1-289): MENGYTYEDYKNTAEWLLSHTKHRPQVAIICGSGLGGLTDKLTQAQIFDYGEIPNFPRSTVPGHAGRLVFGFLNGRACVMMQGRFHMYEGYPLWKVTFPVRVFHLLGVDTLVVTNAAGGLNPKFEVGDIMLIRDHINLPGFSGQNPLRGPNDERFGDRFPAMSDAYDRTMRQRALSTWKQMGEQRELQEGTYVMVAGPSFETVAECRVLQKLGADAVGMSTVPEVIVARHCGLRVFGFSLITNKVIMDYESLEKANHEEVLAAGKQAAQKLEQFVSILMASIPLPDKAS
Experimental: In the purine nucleoside phosphorylase (PNP-4) enzyme assay, an IC50 is achieved at a dose of 1.0 micromoles on a selected compound of the present invention. PNP-4 activity for the compound of formula I is measured radiochemically by measuring the formation of [^14 --C]hypoxanthine from [^14 --C]inosine [Biomedicine, 33, 39 (1980)] using human erythrocyte as the enzyme source.

Row | SMILES | inhibiting rejection of skin graft (rejection of skin graft) | toxicity to B-cell (B-cell) | pIC50 (T-cells; T-cell, + 10 μM 2'-deoxyguanosine, read-out: HTBA-1 T-Cell + 10 μM 2'-d Gua, IC50) | selective cytotoxicity for T-cells (T-cells; in the presence of 2'-deoxyguanosine, at a similar concentration range) | pIC50 [1]
1 | Nc1nc2c(nc(N)n2[C@@H]2O[C@H](CO)[C@@H](O)[C@H]2O)c(=O)[nH]1 [8-Aminoguanosine] | efficacious for inhibiting rejection of skin graft in dogs | – | – | – | –
2 | Nc1nc2c(ccn2Cc2cccs2)c(=O)[nH]1 [Example 2, 2-Amino-7-(2-thienylmethyl)-4-pyrrolo[2,3-d]pyrimidone] | – | nontoxic to B-cell | 5.64 | selectively cytotoxic for T-cells | 6.00
